Source: patent publication US12048737B2, “Use of a vaccine targeting a cryptic tert epitope, for treating cancer in a HLA-A*0201-positive patient having a non-immunogenic tumor expressing tert” (KRIPTIC PHARMACEUTICALS LIMITED, priority 2017, dated 2024)

Test system: TERT572 peptide
Assay: IFNg ELISpot immunomonitoring of vaccine induced TERT572 specific immune response in PBMC
Type: cell-based, human

Vx-001: vaccine composed of two nine amino acid peptides, TERT572 and TERT572Y, administered separately with the adjuvant Montanide ISA51 VG (chain 1 RLFFYRKSV; chain 2 YLFFYRKSV; Montanide ISA51 VG adjuvant; peptide from a human protein; optimized peptide)
Patients who mounted a TERT572 specific immune response (75 Vx-001 treated patients measured at least at W6, W18 or thereafter): 29.3%
Patients with TERT572 specific immune response (non-squamous (NSQ) NSCLC): 36%
Frequency of patients with vaccine-induced immune response (patients with natural immunity against TERT572): 15%
Frequency of patients with vaccine-induced immune response (patients without natural immunity against TERT572): 36.2%
Patients with TERT572 specific immune response (squamous (SQ) NSCLC): 13.3%
